Experimental findings from patent publication US5091169A, “Dipyridoxyl phosphate NMRI contrast agent compositions” (priority 1989, dated 1992) are described below.

The text on this data set: The compound DPDP was studied potentiometrically from pH 11.2 to 2.0. Data sets were collected on a custom-built automatic potentiometric titration apparatus composed of a METROHM 655 DOSIMAT automatic buret, a FISHER ACCUMET pH meter with a CORNING calomel combination electrode, a custom-blown water jacketed titration cell, a BRINKMAN LAUDA K-2/R constant temperature bath and a COMMODORE 64 computer. The BASIC computer program TITRATOR (Harris, W. et al, J.Am.Chem.Soc. 101:6534 (1979)) runs the apparatus. Data analysis was performed on an IBM-AT computer using the least squares program, BETA (Harris, W. et al, supra), and the data analysis program, HANDNBAR (Harris, W. et al, supra). The titrants were standardized by phenophthalein titration as follows: KOH was calibrated against potassium hydrogen phthalate (a primary standard), and HCl solutions were calibrated against the KOH standard. The Mn(II)Cl2 solution was standardized with an EDTA titration using Erichrome Black T as the indicator. All solutions were made from distilled, deionized water that was further purified on a MILLI-Q cartridge system, degassed, and then kept under an atmosphere of argon which had been scrubbed for CO2 and O2. Additions of EDTA and Mn(II) solutions were performed using calibrated GILMOT pipets. The electrode was calibrated in concentration units with degassed solutions of p[H+]=2.291 and 1.078 at 0.1 M ionic strength.
The metal complex titration was performed by adding 152.2 mg (0.2383 mmoles) to 74.6 ml of a high pH aqueous solution. 2.07 ml of a 0.1152 M Mn(II) solution (0.2386 mmoles) were added. The complex was then titrated to low pH with 1.002 N HCl.

Regarding `Cc1ncc(COP(=O)(O)O)c(CN(CCN(CC(=O)[O-])Cc2c(COP(=O)(O)O)cnc(C)c2O)CC(=O)[O-])c1O.[Mn+2]` [Mn(DPDP), manganese chelate complex of N,N'-bis-(pyridoxal-5-phosphate)ethylenediamine-N,N'-diacetic acid], where the note is “Mn(II) chelate, titrated from pH 11.1 to 2.0”, the “log Kf (formation constant)” value was found to be 14.8. Moreover, for the setting “physiological pH”, the “binding of Mn(II) ion” value was “quantitatively bound to the chelating agent”. For the same compound, the “pH below which chelate begins to demetallate” value (titration data) is recorded as “below 4.5”.
